Reference: US12157730B2, “Heteroaryl derivative, method for producing same, and pharmaceutical composition comprising same as effective component” (VORONOI INC., priority 2019, dated 2024)

target: T1, Ba/F3 cell EGFR Exon20 ins NPH (Homo sapiens, UniProt P00533, INS773NPH); experiment: Ba/F3 cell proliferation suppression, EGFR Exon20 ins NPH; assay type: cell-based; settings: GI50 class; Ba/F3 cell line with NPH inserted at Exon20 of EGFR; 72 hours
T1 construct: expressed in transfected cells; host or cells: Ba/F3
Outline: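 Seed 3000–5000 cells/well; after 24 h add compound (12 conc., 0.3 nM–50 um final); incubate 72 h; add CellTiter-Glo, 10 min room temperature; read luminescence; GI50 from % growth vs control, triplicate.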

Row | Ba/F3 (NPH) Activity | Compound
1 | A (GI50 < 50 nM) | C=CC(=O)Nc1cc(Nc2cc(N3OCC[C@@H]3c3ccccc3)ncn2)c(OC)cc1N1CCC(N2CCN(C3CCCC3)CC2)CC1 [Example 97, N-(2-(4-(4-cyclopentylpiperazine-1-yl)piperidine-1-yl)-4-methoxy-5-((6-((R)-3-phenylisoxazolidine-2-yl)pyrimidine-4-yl)amino)phenyl) acrylamide]
2 | A (GI50 < 50 nM) | C=CC(=O)Nc1cc(Nc2cc(N3OCC[C@@H]3c3cccc(F)c3)ncn2)c(OC)cc1N1CCN(CC)CC1 [Example 246, N-(2-(4-ethylpiperazine-1-yl)-5-((6-((R)-3-(3-fluorophenyl)isoxazolidine-2-yl)pyrimidine-4-yl)amino)-4-methoxyphenyl) acrylamide]
3 | A (GI50 < 50 nM) | C=CC(=O)Nc1cc(Nc2cc(N3OCC[C@@H]3c3ccc(Cl)cc3)ncn2)c(OC)cc1N1CCC(N2CCOCC2)CC1 [compound 782, N-(5-((6-((R)-3-(4-chlorophenyl)isoxazolidine-2-yl)pyrimidine-4-yl)amino)-4-methoxy-2-(4-morpholinopiperidine-1-yl)phenyl)acrylamide]
4 | A (GI50 < 50 nM) | C=CC(=O)Nc1cc(Nc2cc(N3OCC[C@@H]3c3ccc(F)cc3F)ncn2)c(OC)cc1N1CCC(N2CCN(C3COC3)CC2)CC1 [Example 197, N-(5-((6-((R)-3-(2,4-difluorophenyl)isoxazolidine-2-yl)pyrimidine-4-yl)amino)-4-methoxy-2-(4-(4-(oxetane-3-yl)piperazine-1-yl)piperidine-1-yl)phenyl)acrylamide]
5 | A (GI50 < 50 nM) | C=CC(=O)Nc1cc(Nc2cc(N3OCC[C@@H]3c3cccc(F)c3Cl)ncn2)c(OC)cc1N1CCC(N2CCN(C)CC2)CC1 [compound 560, N-(5-((6-((R)-3-(2-chloro-3-fluorophenyl)isoxazolidine-2-yl)pyrimidine-4-yl)amino)-4-methoxy-2-(4-(4-methylpiperazine-1-yl)piperidine-1-yl)phenyl) acrylamide]
6 | A (GI50 < 50 nM) | C=CC(=O)Nc1cc(Nc2cc(N3OCC[C@@H]3c3ccc(F)c(F)c3F)ncn2)c(OC)cc1N1CCC(N2CCN(C3CCC3)CC2)CC1 [Example 187, N-(2-(4-(4-cyclobutylpiperazine-1-yl)piperidine-1-yl)-4-methoxy-5-((6-((R)-3-(2,3,4-trifluorophenyl)isoxazolidine-2-yl)pyrimidine-4-yl)amino)phenyl)acrylamide]
7 | A (GI50 < 50 nM) | C=CC(=O)Nc1cc(Nc2cc(N3OCC[C@@H]3c3ccccc3)ncn2)c(OC)cc1N1CCC(N2CCN(CC3CC3)CC2)CC1 [Example 91, N-(2-(4-(4-(cyclopropylmethyl)piperazine-1-yl)piperidine-1-yl)-4-methoxy-5-((6-((R)-3-phenylisoxazolidine-2-yl)pyrimidine-4-yl)amino)phenyl)acrylamide]
8 | B (50 nM ≤ GI50 < 500 nM) | C=CC(=O)Nc1cc(Nc2cc(N3OCC[C@@H]3c3cccc4ccccc34)ncn2)c(OC)cc1N1CCC(N2CCN(CC)CC2)CC1 [compound 484, N-(2-(4-(4-ethylpiperazine-1-yl)piperidine-1-yl)-4-methoxy-5-((6-((R)-3-(naphthalene-1-yl)isoxazolidine-2-yl)pyrimidine-4-yl)amino)phenyl)acrylamide]

Second part, the compound before the results:

Row | Compound | Ba/F3 (NPH) Activity
9 | C=CC(=O)Nc1cc(Nc2cc(N3OCC[C@@H]3c3ccc(C)nc3)ncn2)c(OC)cc1N1C[C@H]2C[C@@H]1CO2 [Example 224, N-(2-((1R,4R)-2-oxa-5-azabicyclo[2.2.1]heptane-5-yl)-4-methoxy-5-((6-((R)-3-(6-methylpyridine-3-yl)isoxazolidine-2-yl)pyrimidine-4-yl)amino)phenyl)acrylamide] | C (500 nM ≤ GI50 < 5000 nM)
10 | C=CC(=O)Nc1cc(Nc2cc(N3OCC[C@@H]3c3cccc(C#N)c3)ncn2)c(OC)cc1N1CCC(N2CCC(F)(F)CC2)CC1 [compound 433, N-(5-((6-((R)-3-(3-cyanophenyl)isoxazolidine-2-yl)pyrimidine-4-yl)amino)-2-(4,4-difluoro-[1,4'-bipiperidine]-1'-yl)-4-methoxyphenyl) acrylamide] | A (GI50 < 50 nM)
11 | C=CC(=O)Nc1cc(Nc2cc(N3OCC[C@@H]3c3cccc(C#N)c3)ncn2)c(OC)cc1N1CCC(N2CCN(C3CC3)C[C@@H]2C)CC1 [Example 132, N-(5-((6-((R)-3-(3-cyanophenyl)isoxazolidine-2-yl)pyrimidine-4-yl)amino)-2-(4-((S)-4-cyclopropyl-2-methylpiperazine-1-yl)piperidine-1-yl)-4-methoxyphenyl) acrylamide] | B (50 nM ≤ GI50 < 500 nM)
12 | C=CC(=O)Nc1cc(Nc2cc(N3OCC[C@@H]3c3ccc(F)c(Cl)c3)ncn2)c(OC)cc1N1CCC(N2CC[C@@H](N(C)C)C2)CC1 [compound 769, N-(5-((6-((R)-3-(3-chloro-4-fluorophenyl)isoxazolidine-2-yl)pyrimidine-4-yl)amino)-2-(4-((R)-3-(dimethylamino)pyrolidine-1-yl)piperidine-1-yl)-4-methoxyphenyl) acrylamide] | A (GI50 < 50 nM)
13 | C=CC(=O)Nc1cc(Nc2cc(N3OCC[C@H]3c3c(F)cccc3F)ncn2)c(OC)cc1N1CCC(N2CC[C@@H](N(C)C)C2)CC1 [compound 314, N-(5-((6-((S)-3-(2,6-difluorophenyl)isoxazolidine-2-yl)pyrimidine-4-yl)amino)-2-(4-((R)-3-(dimethylamino)pyrolidine-1-yl)piperidine-1-yl)-4-methoxyphenyl) acrylamide] | C (500 nM ≤ GI50 < 5000 nM)
14 | C=CC(=O)Nc1cc(Nc2cc(N3OCC[C@@H]3Cc3ccccc3)ncn2)c(OC)cc1N1C[C@H]2C[C@@H]1CN2CC [compound 949, N-(5-((6-((S)-3-benzylisoxazolidine-2-yl)pyrimidine-4-yl)amino)-2-((1R,4R)-5-ethyl-2,5-diazabicyclo [2.2.1]heptane-2-yl)-4-methoxyphenyl) acrylamide] | A (GI50 < 50 nM)
15 | C=CC(=O)Nc1cc(Nc2cc(N3OCC[C@@H]3c3cccc(F)c3F)ncn2)c(OC)cc1N1C[C@H]2CCN(C)[C@H]2C1 [compound 875, N-(5-((6-((R)-3-(2,3-difluorophenyl)isoxazolidine-2-yl)pyrimidine-4-yl)amino)-4-methoxy-2-((3aR,6aR)-1-methylhexahydropyrrolo [3,4-b]pyrrole-5(1H)-yl)phenyl) acrylamide] | A (GI50 < 50 nM)
16 | C=CC(=O)Nc1cc(Nc2cc(N3OCC[C@@H]3c3cc(F)ccc3F)ncn2)c(OC)cc1N1CCC(N(C)C)CC1 [compound 819, N-(5-((6-((R)-3-(2,5-difluorophenyl)isoxazolidine-2-yl)pyrimidine-4-yl)amino)-2-(4-(dimethylamino)piperidine-1-yl)-4-methoxyphenyl) acrylamide] | A (GI50 < 50 nM)
17 | C=CC(=O)Nc1cc(Nc2cc(N3OCC[C@@H]3c3cccs3)ncn2)c(OC)cc1N(C)CCN(C)C [compound 928, N-(2-((2-(dimethylamino)ethyl) (methyl)amino)-4-methoxy-5-((6-((R)-3-(thiophene-2-yl)isoxazolidine-2-yl)pyrimidine-4-yl)amino)phenyl)acrylamide] | A (GI50 < 50 nM)
18 | C=CC(=O)Nc1cc(Nc2cc(N3OCC[C@@H]3c3cccc(Cl)c3)ncn2)c(OC)cc1N1C[C@@H]2C[C@H]1CO2 [compound 466, N-(2-((1S,4S)-2-oxa-5-azabicyclo[2.2.1]heptane-5-yl)-5-((6-((R)-3-(3-chlorophenyl)isoxazolidine-2-yl)pyrimidine-4-yl)amino)-4-methoxyphenyl) acrylamide] | B (50 nM ≤ GI50 < 500 nM)
19 | C=CC(=O)Nc1cc(Nc2cc(N3OCC[C@@H]3Cc3ccccc3)ncn2)c(OC)cc1N1C[C@@H]2C[C@H]1CN2CC [compound 950, N-(5-((6-((S)-3-benzylisoxazolidine-2-yl)pyrimidine-4-yl)amino)-2-((1S,4S)-5-ethyl-2,5-diazabicyclo [2.2.1]heptane-2-yl)-4-methoxyphenyl) acrylamide] | A (GI50 < 50 nM)
20 | C=CC(=O)Nc1cc(Nc2cc(N3OCC[C@@H]3c3ccc(F)c(F)c3)ncn2)c(OC)cc1N1CC[C@@H](N2CCOCC2)C1 [compound 578, N-(5-((6-((R)-3-(3,4-difluorophenyl)isoxazolidine-2-yl)pyrimidine-4-yl)amino)-4-methoxy-2-((R)-3-morpholinopyrolidine-1-yl)phenyl)acrylamide] | B (50 nM ≤ GI50 < 500 nM)
21 | C=CC(=O)Nc1cc(Nc2cc(N3OCC[C@@H]3c3cc(F)cc(Cl)c3)ncn2)c(OC)cc1N1CCC(O)CC1 [compound 591, N-(5-((6-((R)-3-(3-chloro-5-fluorophenyl)isoxazolidine-2-yl)pyrimidine-4-yl)amino)-2-(4-hydroxypiperidine-1-yl)-4-methoxyphenyl) acrylamide] | A (GI50 < 50 nM)
22 | C=CC(=O)Nc1cc(Nc2cc(N3OCC[C@@H]3c3cc(F)cc(F)c3)ncn2)c(OC)cc1N1CCC(N2CCN(C3CCCC3)CC2)CC1 [Example 98, N-(2-(4-(4-cyclopentylpiperazine-1-yl)piperidine-1-yl)-5-((6-((R)-3-(3,5-difluorophenyl)isoxazolidine-2-yl)pyrimidine-4-yl)amino)-4-methoxyphenyl) acrylamide] | A (GI50 < 50 nM)
23 | C=CC(=O)Nc1cc(Nc2cc(N3OCC[C@@H]3c3c(F)ccc(F)c3Cl)ncn2)c(OC)cc1N1CCC(N2CCN(C3CC3)[C@@H](C)C2)CC1 [compound 934, N-(5-((6-((R)-3-(2-chloro-3,6-difluorophenyl)isoxazolidine-2-yl)pyrimidine-4-yl)amino)-2-(4-((S)-4-cyclopropyl-3-methylpiperazine-1-yl)piperidine-1-yl)-4-methoxyphenyl) acrylamide] | A (GI50 < 50 nM)
